According to article PMC9925557, “Anti-inflammatory effects of new human histamine H3 receptor ligands with flavonoid structure on BV-2 neuroinflammation” (Inflammation Research, 2022):

Tests used:
BV-2 cells [1] = test: MTS cell viability assay; type: cell-based, murine; details: Mus musculus, 24 h exposure, mean ± SD, read-out: IC50 (inhibition of cell viability)
Procedure: The murine microglial BV-2 cell line was purchased from the Interlab Cell Line Collection (ICLC) cell bank (Genova, Italy). The BV-2 cells were cultured in DMEM/F12 medium (Lonza, BioWhittaker, Walkersville, MD USA, 12-719F) containing 10% of heat-inactivated fetal bovine serum (FBS, Gibco, 10,500–064) in a humidified incubator containing 95% air and 5% CO2 at 37 °C. BV-2 cells were used for experiments at passages 3 to 11. In all experiments, the concentration of FBS was reduced to 5%.
BV-2 cells (2 × 10^4 cells/100 μl/well) were cultured in transparent 96-well plates (TPP, Trasadingen, Switzerland) in DMEM/F12 supplemented with 5% FBS in the presence of dimethylsulfoxide (DMSO ≤ 0.1%, vehicle control, Veh) or increasing doses of tested compounds (0.78 × 10^–6 – 50 × 10^–6 M). Compound treatment was performed for 24 h. After the incubation time, cell viability was examined using an MTS-based [3-(4,5-dimethylthiazol-2-yl)-5-(3-carboxymethoxyphenyl)-2-(4-sulfophenyl)-2 H tetrazolium] CellTiter96® AQueous One Solution Cell Proliferation Assay (Promega, Madison, USA) following the manufacturer’s protocol. Briefly, 20 μl of MTS solution was pipetted into each well containing 100 μl of culture or culture medium without cells (blank control), mixed well and incubated at 37 °C for 55 min. After the appropriate time, the absorbance was measured at 490 nm using the EnSpire microplate reader (PerkinElmer, Massachusetts, USA). IC50 values were calculated with non-linear regression fit to a sigmoidal dose–response curve (log of compound concentration versus normalized response) using GraphPad Prism (v. 4.0.3).
(§1) To establish an experimental model of neuroinflammation in vitro, BV-2 cells were cultured in a 96-well plate (2 × 10^4 cells/200 μl/per well) and a 24-well plate (15 × 10^4 cells/500 μl/well) for the MTS assay and the Griess assay or the RT-qPCR experiment, respectively. BV-2 cells were treated for 24 h, 45 h and 69 h with the increasing concentration of LPS (Sigma-Aldrich, Saint Louis, MO, USA, L4391): 0.001; 0.01; 0.1; 1 [μg/ml]. Following LPS stimulation, at each time point, 100 μl of culture medium from each sample was transferred to another plate and mixed with an equal volume of Griess reagent. Simultaneously, on the plate with cells, cell viability was assessed by adding 20 μl of MTS reagent. The cells cultured on a 24-well plate were used for assessing the expression levels of proinflammatory cytokines (IL-1β, IL-6, TNF-α) by RT-qPCR.
To avoid the toxic effect of H3R ligands in subsequent studies, an MTS assay was performed to investigate cell viability. BV-2 cells were cultured for 24 h in the presence of an increasing concentration of compounds E243 and IIIa–IIIc (twofold dilutions covered the range from 0.78 × 10^–6 to 50 × 10^–6 M). […]

[2] = target: T1, human histamine H1 receptor (Homo sapiens, UniProt P35367); test: [3H]Pyrilamine radioligand binding, CHO-K1 cells stably expressing hH1R; details: for Selectivity Ki (H1R)/Ki (H3R): hH3R over hH1R
T1 construct: expressed in transfected cells; host or cells: CHO-K1
T1 sequence (P35367 whole entry): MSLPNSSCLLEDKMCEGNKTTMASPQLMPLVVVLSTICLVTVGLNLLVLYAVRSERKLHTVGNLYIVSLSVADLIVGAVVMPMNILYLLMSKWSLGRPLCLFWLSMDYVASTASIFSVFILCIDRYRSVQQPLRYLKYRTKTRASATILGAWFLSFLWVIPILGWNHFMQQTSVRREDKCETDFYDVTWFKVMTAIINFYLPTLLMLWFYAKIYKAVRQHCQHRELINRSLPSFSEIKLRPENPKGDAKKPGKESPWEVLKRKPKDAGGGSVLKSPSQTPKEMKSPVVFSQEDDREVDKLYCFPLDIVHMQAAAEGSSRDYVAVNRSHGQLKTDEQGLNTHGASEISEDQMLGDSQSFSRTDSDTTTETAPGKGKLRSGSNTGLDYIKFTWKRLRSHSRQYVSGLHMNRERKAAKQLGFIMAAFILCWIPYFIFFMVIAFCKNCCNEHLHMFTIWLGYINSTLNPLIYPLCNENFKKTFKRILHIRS
Procedure: (§2) Radioligand binding studies, using CHO-K1 cells stably expressing the H1R or Sf9 cells transiently expressing the H4R were performed as described previously. [^3H]Pyrilamine (H1R) and [^3H]histamine (H4R) were used as radiolignads. Affinities were determined using at least five different concentrations of tested compounds in triplicate independent experiments.

BV-2 cells [3] = test: ELISA of pro-inflammatory cytokines released by LPS-activated BV-2 cells; type: cell-based, murine; details: for Inhibitory activity on pro-inflammatory cytokine production: LPS-stimulated BV-2 cells, data not shown
Procedure: The concentrations of IL-1β, IL-6, TNF-α, the main inflammatory cytokines, were analysed using commercial ELISA kits (IL-6 ELISA kit, ADI-900–045, TNF-α ELISA kit, ADI-900–047, Enzo, Mouse IL-1 beta ELISA kit, Invitrogen) according to the manufacturer’s instructions. Briefly, at the end of 24 h of incubation with tested compounds, cell culture plates were centrifuged to remove cell debris from the supernatants. Culture medium was collected in Eppendorf tubes and frozen at −80 °C until further analysis.
Fig. 8 Effect of compound IIIc on the production of proinflammatory cytokines by LPS-activated BV-2 cells.

BV-2 cells [4] = test: RT-qPCR of pro-inflammatory cytokine mRNA in LPS-activated BV-2 cells; details: 6.25 μM, 1 h pretreatment, LPS 1 μg/ml 24 h; on average
[5] = target: T2, human histamine H4 receptor (Homo sapiens, UniProt Q9H3N8); test: [3H]Histamine radioligand binding, Sf9 cells transiently expressing hH4R; details: for Selectivity Ki (H4R)/Ki (H3R): hH3R over hH4R
T2 construct: expressed in transfected cells; host or cells: Sf9
T2 sequence (Q9H3N8 whole entry): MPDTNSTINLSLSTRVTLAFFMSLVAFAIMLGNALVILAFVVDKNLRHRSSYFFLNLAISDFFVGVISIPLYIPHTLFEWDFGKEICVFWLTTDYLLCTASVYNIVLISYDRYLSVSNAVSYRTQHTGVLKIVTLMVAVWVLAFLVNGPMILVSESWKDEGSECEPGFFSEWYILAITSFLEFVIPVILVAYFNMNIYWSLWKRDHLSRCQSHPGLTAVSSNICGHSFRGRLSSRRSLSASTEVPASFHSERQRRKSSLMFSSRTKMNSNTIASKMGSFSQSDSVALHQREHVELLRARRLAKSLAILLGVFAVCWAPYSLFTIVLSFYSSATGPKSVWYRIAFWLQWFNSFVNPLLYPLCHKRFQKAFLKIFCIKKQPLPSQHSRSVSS
Procedure: as §2

BV-2 cells [6] = test: Griess assay (NO/nitrite level) in LPS-treated BV-2 cells; type: cell-based, murine; details: 6.25 μM, 1 h pretreatment, then 1 μg/ml LPS for 24 h
Procedure: The Griess assay is a colorimetric assay to measure the levels of nitrite (NO2^−) which is one of the primary and stable metabolites of NO. Griess reagent (Sigma-Aldrich, Saint Louis, MO, USA, G4410) was freshly prepared according to the manufacturer's instructions, that is, 1 g was dissolved in ultrapure water and mixed by inversion for about 4 min. For measuring nitric oxide, after an appropriate incubation time, 100 μl of culture medium was transferred to a transparent 96-well plate and mixed with the same volume of Griess reagent. The plate was incubated for 15 min at room temperature and the absorbance was read at 540 nm using the EnSpire microplate reader (PerkinElmer, Massachusetts, USA). Data were analysed by direct comparison based on the average absorbance of LPS treatment, compound treatment or co-treatment with LPS, performed by normalizing treated cells (compound alone or co-treatment with LPS) to LPS-treated cells set as 100%.
as §1
Fig. 6 The effect of the compounds tested (E243 and IIIa–IIIc) on nitric oxide (NO) production in BV-2 cells assessed by the Griess assay. BV-2 cells were pretreated for 1 h with indicated compounds at the concentration of 6.25 μM, followed by stimulation with 1 μg/ml LPS for 24 h. Data are expressed as mean ± SEM of two independent experiments, each of which consisted of eight replicates per treatment group and is expressed as a percentage of NO production versus cells treated with LPS (set at 100%). […] Data indicated with ***p < 0.001 (versus vehicle-treated cells) reflect statistically significant differences between the control and experimental groups

human H3 receptor = target: T3, human H3 receptor (Homo sapiens, UniProt Q9Y5N1); test: [3H]Nα-methylhistamine radioligand binding, CHO-K1 cells stably expressing hH3R
T3 construct: expressed in transfected cells; host or cells: CHO-K1
T3 sequence (Q9Y5N1 whole entry): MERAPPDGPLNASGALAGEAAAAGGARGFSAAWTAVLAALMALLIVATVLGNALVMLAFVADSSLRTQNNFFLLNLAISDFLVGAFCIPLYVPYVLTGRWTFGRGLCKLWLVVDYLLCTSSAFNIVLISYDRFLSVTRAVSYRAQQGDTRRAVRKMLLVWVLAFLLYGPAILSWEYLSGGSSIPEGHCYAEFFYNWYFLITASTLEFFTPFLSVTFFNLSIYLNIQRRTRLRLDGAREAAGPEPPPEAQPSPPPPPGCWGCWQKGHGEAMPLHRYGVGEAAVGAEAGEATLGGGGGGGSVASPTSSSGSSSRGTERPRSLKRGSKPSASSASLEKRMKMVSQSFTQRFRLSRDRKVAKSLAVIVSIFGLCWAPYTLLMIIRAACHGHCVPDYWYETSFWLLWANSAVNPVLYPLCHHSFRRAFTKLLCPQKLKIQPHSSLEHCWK
Procedure: Radioligand binding studies were conducted using CHO-K1 cells stably transfected with the human H3 receptor as we described previously. All assays were carried out in duplicates. [^3H]-N-α-methylhistamine was used as radioligand and (R)(-)-α-methylhistamine was used to define nonspecific binding. Radioactivity was counted in MicroBeta2 scintillation counter (PerkinElmer). Data were fitted to a one-site curve-fitting equation with Prism 6 (GraphPad Software) and Ki values were estimated from the Cheng − Prusoff equation.
Compounds IIIa–IIIc were tested for affinity for human H3R (hH3R) in a radioligand binding assay with N^α-methylhistamine as a radioligand in CHO K1 cells stably expressing hH3R. Results are presented as Ki values with SEM (Table 2). […] However, it is still a very active compound. The affinity for hH3R (stably expressed in HEK293 cells) of compound E243 was recently described.

human AChE = system: human AChE; parameters: method as in PMID 31669851; details: cited from earlier work
equine BuChE = system: equine BuChE; parameters: method as in PMID 31669851; details: cited from earlier work
[7] = system: neuroblastoma SH-SY5Y cells; details: 1 µM, 24 h pre-treatment; H2O2 (300 μM) and okadaic acid (50 nM); ref 2nd International Conference on Neuroprotection by Drugs, Nutraceuticals and Physical Activity, 9–10 Dec 2021; cited from earlier work
electric eel AChE = system: electric eel AChE; parameters: method as in PMID 31669851; details: cited from earlier work
[8] = 6.25 μM, 1 h pretreatment, LPS 1 μg/ml 24 h

| Structure (SMILES) | IC50 (BV-2 cells [1]) [nM] | Ki [2] [nM] | Selectivity Ki (H1R)/Ki (H3R) [2] | Release of IL-1β compared to LPS-stimulated BV-2 cells (BV-2 cells [3]; [8]) | Release of IL-6 compared to LPS-stimulated BV-2 cells (BV-2 cells [3]; [8]) | Release of TNF-α compared to LPS-stimulated BV-2 cells (BV-2 cells [3]; [8]) | IL-1β mRNA level, times lower than induced by LPS alone (BV-2 cells [4]) [times] | TNF-α mRNA level, times lower than induced by LPS alone (BV-2 cells [4]) [times] | Ki [5] [nM] | Selectivity Ki (H4R)/Ki (H3R) [5] | Reduction of NO level compared to LPS treated cells (BV-2 cells [6]) [%] | Ki (human H3 receptor) [nM] | Inhibitory activity on pro-inflammatory cytokine production (BV-2 cells [3]) | melting point [°C] | IC50 (human AChE) [nM] | IC50 (equine BuChE) [nM] | Prevention of ROS production, times compared to neurotoxin-treated cells [7] [times] | IC50 (electric eel AChE) [nM] |
| --- | --- | --- | --- | --- | --- | --- | --- | --- | --- | --- | --- | --- | --- | --- | --- | --- | --- | --- |
| COc1cc(/C=C/C(=O)c2ccc(OCCCN3CCCCC3)cc2)cc(OC)c1OC.Cl [IIIc, (E)-3-(3,4,5-Trimethoxyphenyl)-1-(4-(3-(piperidin-1-yl)propoxy)phenyl)prop-2-en-1-one hydrogen chloride] | 11300 ± 3260 | 2700 | > 112 | significantly lower | significantly lower | significantly lower | ~2 | ~3 | 2820 | > 117 | 61 | 24 ± 1.1 | – | – | – | – | – | – |
| COc1ccc(/C=C/C(=O)c2ccc(OCCCN3CCCCC3)cc2)cc1.Cl [IIIa, (E)-3-(4-Methoxyphenyl)-1-(4-(3-(piperidin-1-yl)propoxy)phenyl)prop-2-en-1-one hydrogen chloride] | 21200 ± 1980 | – | – | – | – | – | – | – | – | – | ~30 | 14 ± 0.2 | have not shown inhibitory activity | 174 to 177 | – | – | – | – |
| Cc1ccc2oc(-c3ccc(OCCCCCCN4CCCCC4)cc3)cc(=O)c2c1 [Compound E243] | 53500 ± 5560 | 1310 ± 128 | > 5 | – | – | – | – | – | 4440 | > 19 | ~30 | – | – | – | 360 | 758 | ~2 | 501 |
| COc1ccc(/C=C/C(=O)c2ccc(OCCCN3CCCCC3)cc2)cc1OC.Cl [IIIb, (E)-3-(3,4-Dimethoxyphenyl)-1-(4-(3-(piperidin-1-yl)propoxy)phenyl)prop-2-en-1-one hydrogen chloride] | 26700 ± 3480 | 1080 | > 112 | – | – | – | – | – | 12500 | > 1300 | ~30 | 9.6 ± 0.2 | have not shown inhibitory activity | 173 to 176 | – | – | – | – |
